pIC50: −log10 of the molar value.
Assays:
CK1α = target: T1, CK1α (Homo sapiens, UniProt P48729+Q96SW2); assay: Western-blot assay of substrate protein degradation in hPBMCs, CK1α; type: cell-based; conditions: 24 hours of compound treatment
T1 construct: endogenous in cells; host or cells: hPBMCs (Milecell Biotechnologies)

GSPT1 = target: T2, GSPT1 (Homo sapiens, UniProt P15170+Q96SW2); assay: Western-blot assay of substrate protein degradation in hPBMCs, GSPT1; type: cell-based; conditions: 24 hours of compound treatment
T2 construct: endogenous in cells; host or cells: hPBMCs (Milecell Biotechnologies)

IKZF2 = target: T3, IKZF2 (Homo sapiens, UniProt Q96SW2+Q9UKS7); assay: Western-blot assay of substrate protein degradation in hPBMCs, IKZF2; type: cell-based; conditions: 24 hours of compound treatment
T3 construct: endogenous in cells; host or cells: hPBMCs (Milecell Biotechnologies)

IKZF3 = target: T4, IKZF3 (Homo sapiens, UniProt Q96SW2+Q9UKT9); assay: Western-blot assay of substrate protein degradation in hPBMCs, IKZF3; type: cell-based; conditions: 24 hours of compound treatment
T4 construct: endogenous in cells; host or cells: hPBMCs (Milecell Biotechnologies)

WEE1 = target: T5, WEE1 (Homo sapiens, UniProt P30291+Q96SW2); assay: Western-blot assay of substrate protein degradation in hPBMCs, WEE1; type: cell-based; conditions: 24 hours of compound treatment
T5 construct: endogenous in cells; host or cells: hPBMCs (Milecell Biotechnologies)

IKZF1 = target: T6, IKZF1 (Homo sapiens, UniProt Q13422+Q96SW2); assay: Western-blot assay of substrate protein degradation in hPBMCs, IKZF1; type: cell-based; conditions: 24 hours of compound treatment
T6 construct: endogenous in cells; host or cells: hPBMCs (Milecell Biotechnologies)

MM.1S = assay: Tumor cell proliferation inhibition (CellTiter-Meiluncell Luminescent Cell Viability Assay), MM.1S; conditions: Homo sapiens, MM1.S, read-out: inhibitory activity (IC50, nM) against tumor cells proliferation, MM.1S
Description: (§1) The tumor cells used herein were cultured in a cell culture medium listed in table 2 at 37°C in an incubator with 5% CO2. Prior to experimentation, all cell lines used were correctly identified by STR profiling, and tested negative for mycoplasma contamination using a mycoplasma detection kit through routine screenings.
(§2) On the following day, the test compounds of the present disclosure were subjected to serial dilution. […] Subsequently, 0.5 µL of the test compound dilution was transferred into the 96-well plate containing the cells, with each well containing 100 µL of cell culture medium. […] Into the 96-well plate, the diluted test compounds and corresponding detection reagents were added, resulting in final test compound concentrations of 500 nM and 10 nM, respectively.
(§3) After the cells were treated with the compounds of the present disclosure for a specified period (the treatment durations were shown in Table 3), the cell viability assay reagent was added to the culture medium according to the kit's instructions to determine cell viability. […] All controls were treated using the same procedure as the compounds of the present disclosure. The growth inhibition curves for the compounds of the present disclosure were plotted using Prism GraphPad software, and the IC50 values were calculated therefrom.

[1] = target: T7, human Cereblon WT GST-tagged protein (Homo sapiens, UniProt Q96SW2); assay: CRBN-binding affinity by HTRF (CEREBLON BINDING kit); conditions: HTRF inhibitory activity, CEREBLON BINDING kit; read-out: HTRF IC50
T7 construct: purchased CISBIO 64BDCRBNPEH

[2] = system: Human acute T lymphocytic leukemia cells (Molt-4); assay: Tumor cell proliferation inhibition (CellTiter-Meiluncell Luminescent Cell Viability Assay), Molt-4; conditions: MOLT-4, read-out: inhibitory activity (IC50, nM) against tumor cells proliferation, Molt-4
MV-4-11 = assay: Tumor cell proliferation inhibition (CellTiter-Meiluncell Luminescent Cell Viability Assay), MV-4-11; conditions: Homo sapiens, MV4-11, read-out: inhibitory activity (IC50, nM) against tumor cells proliferation, MV-4-11
Description: as §1, §2, §3

CCRF-CEM = assay: Tumor cell proliferation inhibition (CellTiter-Meiluncell Luminescent Cell Viability Assay), CCRF-CEM; conditions: Homo sapiens, read-out: inhibitory activity (IC50, nM) against tumor cells proliferation, CCRF-CEM
Jurkat = assay: Tumor cell proliferation inhibition (CellTiter-Meiluncell Luminescent Cell Viability Assay), Jurkat; conditions: Homo sapiens, read-out: inhibitory activity (IC50, nM) against tumor cells proliferation, Jurkat
[3] = compounds tested at 50 nM and 500 nM (concentration of the table not stated)
[4] = 50 nM and 500 nM tested (concentration behind the class not stated)

T7 sequence (Q96SW2 whole entry): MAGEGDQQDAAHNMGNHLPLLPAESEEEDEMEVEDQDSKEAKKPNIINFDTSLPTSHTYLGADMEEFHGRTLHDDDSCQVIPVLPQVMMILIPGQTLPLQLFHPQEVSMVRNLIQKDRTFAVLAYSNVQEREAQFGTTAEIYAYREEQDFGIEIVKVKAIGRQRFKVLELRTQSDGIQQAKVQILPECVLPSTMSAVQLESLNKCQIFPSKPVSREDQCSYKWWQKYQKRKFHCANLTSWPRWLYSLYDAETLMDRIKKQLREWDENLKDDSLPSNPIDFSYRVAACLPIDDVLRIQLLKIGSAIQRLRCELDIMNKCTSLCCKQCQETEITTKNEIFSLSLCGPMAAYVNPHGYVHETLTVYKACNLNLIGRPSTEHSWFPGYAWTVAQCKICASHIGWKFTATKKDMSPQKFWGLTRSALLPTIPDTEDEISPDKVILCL
T2 sequence (P15170 whole entry): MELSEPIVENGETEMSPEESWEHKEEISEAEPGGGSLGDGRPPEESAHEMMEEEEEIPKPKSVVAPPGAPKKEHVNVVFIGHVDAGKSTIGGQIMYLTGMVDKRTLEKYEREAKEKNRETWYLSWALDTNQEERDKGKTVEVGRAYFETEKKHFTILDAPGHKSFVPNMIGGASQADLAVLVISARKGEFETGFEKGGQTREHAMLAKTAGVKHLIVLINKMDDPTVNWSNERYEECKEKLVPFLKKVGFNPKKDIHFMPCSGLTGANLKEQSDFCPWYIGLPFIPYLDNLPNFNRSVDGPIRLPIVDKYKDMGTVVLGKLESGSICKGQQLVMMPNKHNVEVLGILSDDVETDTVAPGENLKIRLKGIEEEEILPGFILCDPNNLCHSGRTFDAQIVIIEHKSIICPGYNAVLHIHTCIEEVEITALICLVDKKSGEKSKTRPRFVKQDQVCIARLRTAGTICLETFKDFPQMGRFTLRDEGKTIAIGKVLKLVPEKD
T2 sequence (Q96SW2 whole entry): as the sequence (Q96SW2 whole entry) above
T2 sequence (Q16531 whole entry partner): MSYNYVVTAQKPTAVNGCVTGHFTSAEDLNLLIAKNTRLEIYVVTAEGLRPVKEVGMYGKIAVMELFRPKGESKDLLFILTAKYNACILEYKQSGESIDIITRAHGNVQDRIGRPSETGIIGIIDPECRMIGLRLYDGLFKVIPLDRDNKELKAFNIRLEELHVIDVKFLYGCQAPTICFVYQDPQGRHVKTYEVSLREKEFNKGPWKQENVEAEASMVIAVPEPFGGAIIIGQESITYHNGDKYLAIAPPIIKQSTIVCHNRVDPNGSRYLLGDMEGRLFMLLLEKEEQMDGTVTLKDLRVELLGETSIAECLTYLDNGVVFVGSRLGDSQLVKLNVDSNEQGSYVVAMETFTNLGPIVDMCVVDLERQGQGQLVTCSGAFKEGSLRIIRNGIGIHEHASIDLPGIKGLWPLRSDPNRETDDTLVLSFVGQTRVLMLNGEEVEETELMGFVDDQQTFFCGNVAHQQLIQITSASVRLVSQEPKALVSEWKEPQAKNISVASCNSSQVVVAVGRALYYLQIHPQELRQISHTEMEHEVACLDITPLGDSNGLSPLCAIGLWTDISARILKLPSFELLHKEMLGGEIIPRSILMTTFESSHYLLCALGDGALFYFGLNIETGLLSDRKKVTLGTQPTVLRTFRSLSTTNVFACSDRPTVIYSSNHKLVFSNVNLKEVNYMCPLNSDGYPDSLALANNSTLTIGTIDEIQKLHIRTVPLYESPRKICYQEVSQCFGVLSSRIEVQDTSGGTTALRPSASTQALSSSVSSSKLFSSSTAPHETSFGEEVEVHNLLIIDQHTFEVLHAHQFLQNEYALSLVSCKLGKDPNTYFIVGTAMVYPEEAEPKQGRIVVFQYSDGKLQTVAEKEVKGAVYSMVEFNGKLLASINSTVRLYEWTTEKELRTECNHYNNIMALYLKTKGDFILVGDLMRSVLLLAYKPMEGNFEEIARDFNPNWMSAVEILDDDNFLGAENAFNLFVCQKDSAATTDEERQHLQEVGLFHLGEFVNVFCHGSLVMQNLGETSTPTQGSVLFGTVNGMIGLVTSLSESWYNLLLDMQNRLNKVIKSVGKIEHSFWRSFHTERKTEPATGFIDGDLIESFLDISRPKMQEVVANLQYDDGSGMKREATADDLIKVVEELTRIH
T4 sequence (Q9UKT9 whole entry): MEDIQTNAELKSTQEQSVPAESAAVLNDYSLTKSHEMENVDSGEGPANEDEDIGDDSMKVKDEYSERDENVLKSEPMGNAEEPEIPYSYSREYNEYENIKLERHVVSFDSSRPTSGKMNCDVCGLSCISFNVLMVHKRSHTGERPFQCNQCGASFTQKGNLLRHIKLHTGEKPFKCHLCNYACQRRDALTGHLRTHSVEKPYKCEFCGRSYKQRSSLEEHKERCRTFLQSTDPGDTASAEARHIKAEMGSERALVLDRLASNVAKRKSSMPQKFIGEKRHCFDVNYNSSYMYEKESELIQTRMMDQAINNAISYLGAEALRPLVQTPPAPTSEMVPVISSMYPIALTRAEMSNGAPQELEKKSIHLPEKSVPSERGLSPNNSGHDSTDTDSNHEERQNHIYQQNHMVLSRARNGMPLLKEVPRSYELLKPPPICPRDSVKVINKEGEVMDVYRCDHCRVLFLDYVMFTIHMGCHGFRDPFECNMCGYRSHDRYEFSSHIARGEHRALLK
T4 sequence (Q96SW2 whole entry): as the sequence (Q96SW2 whole entry) above
T4 sequence (Q16531 whole entry partner): as the sequence (Q16531 whole entry partner) above
T1 sequence (P48729 whole entry): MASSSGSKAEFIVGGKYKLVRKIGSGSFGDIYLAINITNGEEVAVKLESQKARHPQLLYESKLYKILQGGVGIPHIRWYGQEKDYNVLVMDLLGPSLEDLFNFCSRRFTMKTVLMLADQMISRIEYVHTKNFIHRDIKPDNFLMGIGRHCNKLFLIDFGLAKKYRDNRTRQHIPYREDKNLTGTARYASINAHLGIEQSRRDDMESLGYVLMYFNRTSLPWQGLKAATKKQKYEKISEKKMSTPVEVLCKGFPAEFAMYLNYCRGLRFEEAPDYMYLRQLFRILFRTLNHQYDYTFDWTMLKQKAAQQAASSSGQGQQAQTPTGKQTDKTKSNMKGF
T1 sequence (Q96SW2 whole entry): as the sequence (Q96SW2 whole entry) above
T1 sequence (Q16531 whole entry partner): as the sequence (Q16531 whole entry partner) above
T6 sequence (Q13422 whole entry): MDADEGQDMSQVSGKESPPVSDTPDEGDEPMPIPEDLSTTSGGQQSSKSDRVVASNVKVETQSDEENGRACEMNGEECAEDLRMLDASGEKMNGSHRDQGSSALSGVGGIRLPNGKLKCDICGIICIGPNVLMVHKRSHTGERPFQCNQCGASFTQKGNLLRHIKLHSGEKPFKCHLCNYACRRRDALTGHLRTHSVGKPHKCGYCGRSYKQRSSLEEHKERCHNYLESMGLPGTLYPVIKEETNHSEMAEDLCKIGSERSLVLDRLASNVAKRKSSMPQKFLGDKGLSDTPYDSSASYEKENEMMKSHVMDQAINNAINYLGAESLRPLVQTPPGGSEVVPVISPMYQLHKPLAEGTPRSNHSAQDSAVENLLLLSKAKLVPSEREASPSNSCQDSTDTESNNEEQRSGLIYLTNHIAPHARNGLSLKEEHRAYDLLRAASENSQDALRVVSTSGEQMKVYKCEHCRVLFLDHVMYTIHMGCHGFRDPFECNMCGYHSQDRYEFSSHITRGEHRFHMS
T6 sequence (Q96SW2 whole entry): as the sequence (Q96SW2 whole entry) above
T6 sequence (Q16531 whole entry partner): as the sequence (Q16531 whole entry partner) above
T3 sequence (Q9UKS7 whole entry): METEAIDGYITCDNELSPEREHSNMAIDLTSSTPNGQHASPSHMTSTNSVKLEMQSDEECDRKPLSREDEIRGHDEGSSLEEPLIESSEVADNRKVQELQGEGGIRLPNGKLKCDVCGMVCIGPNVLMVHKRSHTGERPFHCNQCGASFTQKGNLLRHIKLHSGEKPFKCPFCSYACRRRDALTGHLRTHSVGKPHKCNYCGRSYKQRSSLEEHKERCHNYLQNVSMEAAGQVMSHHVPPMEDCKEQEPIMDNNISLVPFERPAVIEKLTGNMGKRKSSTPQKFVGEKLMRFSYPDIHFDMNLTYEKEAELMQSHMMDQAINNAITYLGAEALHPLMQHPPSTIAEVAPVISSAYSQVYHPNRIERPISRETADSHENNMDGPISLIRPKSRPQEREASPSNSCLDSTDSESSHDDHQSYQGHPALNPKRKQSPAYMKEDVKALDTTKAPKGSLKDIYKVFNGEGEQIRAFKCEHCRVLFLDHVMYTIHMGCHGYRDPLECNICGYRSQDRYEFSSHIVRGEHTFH
T3 sequence (Q96SW2 whole entry): as the sequence (Q96SW2 whole entry) above
T3 sequence (Q16531 whole entry partner): as the sequence (Q16531 whole entry partner) above

| SMILES | CK1a substrate protein remaining % (CK1α; [3]) | GSPT1 substrate protein remaining % (GSPT1; [3]) | IKZF2 substrate protein remaining % (IKZF2; [3]) | IKZF3 substrate protein remaining % (IKZF3; [3]) | Weel substrate protein remaining % (WEE1; [3]) | IKZF 1 substrate protein remaining % (IKZF1; [3]) | IC50 (MM.1S) | pIC50 [1] | CK1a substrate protein remaining % (CK1α; [4]) | GSPT1 substrate protein remaining % (GSPT1; [4]) | IC50 [2] | IKZF2 substrate protein remaining % (IKZF2; [4]) | IC50 (MV-4-11) | IKZF3 substrate protein remaining % (IKZF3; [4]) | Weel substrate protein remaining % (WEE1; [4]) | IC50 (CCRF-CEM) | IKZF 1 substrate protein remaining % (IKZF1; [4]) | IC50 (Jurkat) |
| --- | --- | --- | --- | --- | --- | --- | --- | --- | --- | --- | --- | --- | --- | --- | --- | --- | --- | --- |
| O=C1CCC(N2Cc3cc(CN4CCCN(c5cccc(Cl)c5Cl)CC4)ccc3C2=O)C(=O)N1 (stereo not shown) [GT-04856, 3-(5-((4-(2,3-dichlorophenyl)-1,4-diazepan-1-yl)methyl)-1-oxoisoindolin-2-yl)piperidine-2,6-dione] | B (80%< substrate protein remaining %≤ 100%) | A (0% ≤ substrate protein remaining % ≤ 80%) | A (0% ≤ substrate protein remaining % ≤ 80%) | A (0% ≤ substrate protein remaining % ≤ 80%) | A (0% ≤ substrate protein remaining % ≤ 80%) | A (0% ≤ substrate protein remaining % ≤ 80%) | 10 to 50 nM | 6.00 to 6.30 |  |  |  |  |  |  |  |  |  |  |
| O=C1CCC(N2Cc3cc(CN4CCC(N5CCOc6cc(F)ccc65)CC4)ccc3C2=O)C(=O)N1 (stereo not shown) [GT-04859, 3-(5-((4-(7-fluoro-2,3-dihydro-4H-benzo[b][1,4]oxazin-4-yl)piperidin-1-yl)methyl)-1-oxoisoindolin-2-yl)piperidine-2,6-dione] | B (80%< substrate protein remaining %≤ 100%) | A (0% ≤ substrate protein remaining % ≤ 80%) | A (0% ≤ substrate protein remaining % ≤ 80%) | A (0% ≤ substrate protein remaining % ≤ 80%) | B (80%< substrate protein remaining %≤ 100%) | A (0% ≤ substrate protein remaining % ≤ 80%) | 50 to 100 nM | > 6.30 |  |  |  |  |  |  |  |  |  |  |
| O=C1CCC(N2C(=O)c3ccc(CN4CC=C(c5cncc(Cl)c5Cl)CC4)cc3C2=O)C(=O)N1 (stereo not shown) [GT-06609, 5-((4,5-dichloro-3',6'-dihydro-[3,4'-bipyridin]-1'(2'H)-yl)methyl)-2-(2,6-dioxopiperidin-3-yl)isoindoline-1,3-dione] |  |  |  |  |  |  |  | 6.00 to 6.30 | B (80%< substrate protein remaining %≤ 100%) | A (0% ≤ substrate protein remaining % ≤ 80%) | 100 to 500 nM | A (0% ≤ substrate protein remaining % ≤ 80%) | 100 to 500 nM | A (0% ≤ substrate protein remaining % ≤ 80%) | A (0% ≤ substrate protein remaining % ≤ 80%) | 100 to 500 nM | A (0% ≤ substrate protein remaining % ≤ 80%) | 100 to 500 nM |
| O=C1CCC(N2C(=O)c3ccc(CN4CC=C(c5cncc(Cl)c5)CC4)cc3C2=O)C(=O)N1 (stereo not shown) [GT-06611, 5-((5-chloro-3',6'-dihydro-[3,4'-bipyridin]-1'(2'H)-yl)methyl)-2-(2,6-dioxopiperidin-3-yl)isoindoline-1,3-dione] |  |  |  |  |  |  |  |  | A (0% ≤ substrate protein remaining % ≤ 80%) | A (0% ≤ substrate protein remaining % ≤ 80%) | 500 to 1000 nM | A (0% ≤ substrate protein remaining % ≤ 80%) | 100 to 500 nM | A (0% ≤ substrate protein remaining % ≤ 80%) | A (0% ≤ substrate protein remaining % ≤ 80%) | 100 to 500 nM | A (0% ≤ substrate protein remaining % ≤ 80%) |  |
| O=C1CCC(N2C(=O)c3ccc(CN4CC=C(c5ncccc5F)CC4)cc3C2=O)C(=O)N1 (stereo not shown) [GT-06612, 2-(2,6-dioxopiperidin-3-yl)-5-((3-fluoro-3',6'-dihydro-[2,4'-bipyridin]-1'(2'H)-yl)methyl)isoindoline-1,3-dione] |  |  |  |  |  |  |  |  | A (0% ≤ substrate protein remaining % ≤ 80%) | A (0% ≤ substrate protein remaining % ≤ 80%) | 500 to 1000 nM | A (0% ≤ substrate protein remaining % ≤ 80%) | 500 to 1000 nM | A (0% ≤ substrate protein remaining % ≤ 80%) | A (0% ≤ substrate protein remaining % ≤ 80%) | 500 to 1000 nM | A (0% ≤ substrate protein remaining % ≤ 80%) |  |
| O=C1CCC(N2C(=O)c3ccc(CN4CC=C(c5ccnc(Cl)c5Cl)CC4)cc3C2=O)C(=O)N1 (stereo not shown) [GT-06616, 5-((2',3'-dichloro-3,6-dihydro-[4,4'-bipyridin]-1(2H)-yl)methyl)-2-(2,6-dioxopiperidin-3-yl)isoindoline-1,3-dione] |  |  |  |  |  |  |  | 5.72 to 5.82 | A (0% ≤ substrate protein remaining % ≤ 80%) | A (0% ≤ substrate protein remaining % ≤ 80%) | 500 to 1000 nM | B (80%< substrate protein remaining %≤ 100%) | 100 to 500 nM | A (0% ≤ substrate protein remaining % ≤ 80%) | A (0% ≤ substrate protein remaining % ≤ 80%) | 500 to 1000 nM | A (0% ≤ substrate protein remaining % ≤ 80%) |  |
| Cc1nc(C2=CCN(Cc3ccc4c(c3)C(=O)N(C3CCC(=O)NC3=O)C4=O)CC2)c2ccsc2n1 (stereo not shown) [GT-06678, 2-(2,6-dioxopiperidin-3-yl)-5-((4-(2-methylthieno[2,3-d]pyrimidin-4-yl)-3,6-dihydropyridin-1(2H)-yl)methyl)isoindoline-1,3-dione] |  |  |  |  |  |  |  |  | A (0% ≤ substrate protein remaining % ≤ 80%) | A (0% ≤ substrate protein remaining % ≤ 80%) | 100 to 500 nM | B (80%< substrate protein remaining %≤ 100%) | 100 to 500 nM | A (0% ≤ substrate protein remaining % ≤ 80%) | A (0% ≤ substrate protein remaining % ≤ 80%) | 100 to 500 nM | A (0% ≤ substrate protein remaining % ≤ 80%) |  |
| O=C1CCC(N2C(=O)c3ccc(CN4CC=C(c5ncc6ccsc6n5)CC4)cc3C2=O)C(=O)N1 (stereo not shown) [GT-06683, 2-(2,6-dioxopiperidin-3-yl)-5-((4-(thieno[2,3-d]pyrimidin-2-yl)-3,6-dihydropyridin-1(2H)-yl)methyl)isoindoline-1,3-dione] |  |  |  |  |  |  |  |  | B (80%< substrate protein remaining %≤ 100%) | A (0% ≤ substrate protein remaining % ≤ 80%) | 500 to 1000 nM | A (0% ≤ substrate protein remaining % ≤ 80%) | 100 to 500 nM | A (0% ≤ substrate protein remaining % ≤ 80%) | A (0% ≤ substrate protein remaining % ≤ 80%) | 500 to 1000 nM | A (0% ≤ substrate protein remaining % ≤ 80%) |  |
| O=C1CCC(N2C(=O)c3ccc(CN4C5CCC4CN(c4cccc(Cl)c4Cl)C5)cc3C2=O)C(=O)N1 (stereo not shown) [GT-06694, 5-((3-(2,3-dichlorophenyl)-3,8-diazabicyclo[3.2.1]octan-8-yl)methyl)-2-(2,6-dioxopiperidin-3-yl)isoindoline-1,3-dione] |  |  |  |  |  |  |  |  | B (80%< substrate protein remaining %≤ 100%) | A (0% ≤ substrate protein remaining % ≤ 80%) | 500 to 1000 nM | A (0% ≤ substrate protein remaining % ≤ 80%) | 100 to 500 nM | B (80%< substrate protein remaining %≤ 100%) | A (0% ≤ substrate protein remaining % ≤ 80%) | 500 to 1000 nM | B (80%< substrate protein remaining %≤ 100%) |  |
| O=C1CCC(N2C(=O)c3ccc(CN4CC=C(c5c[nH]c6ncccc56)CC4)cc3C2=O)C(=O)N1 (stereo not shown) [GT-06706, 5-((4-(1H-pyrrolo[2,3-b]pyridin-3-yl)-3,6-dihydropyridin-1(2H)-yl)methyl)-2-(2,6-dioxopiperidin-3-yl)isoindoline-1,3-dione] |  |  |  |  |  |  |  |  | A (0% ≤ substrate protein remaining % ≤ 80%) | A (0% ≤ substrate protein remaining % ≤ 80%) | 500 to 1000 nM | A (0% ≤ substrate protein remaining % ≤ 80%) | 100 to 500 nM | A (0% ≤ substrate protein remaining % ≤ 80%) | A (0% ≤ substrate protein remaining % ≤ 80%) | 500 to 1000 nM | A (0% ≤ substrate protein remaining % ≤ 80%) |  |
